Assay results as given in PMC7044277 (Nature Communications, 2020).
Values joined by “and” are separate entries in the source; they are usually repeats but may differ in a detail not shown here. Identical values can stand only once. Like-named read-outs stand apart in the source and are kept apart here.

Experiments:
[1] = molecular target: T1, DRD3 F1063.28A (Homo sapiens, UniProt P35462, F106A); test: cell-based; assay type: cell-based
[2] = molecular target: T2, DRD2 F1103.28L (Homo sapiens, UniProt P14416, F110L); test: Gαi/o-mediated cAMP inhibition (GloSensor), mutant; assay type: cell-based
T2 construct: expressed in transfected cells; host or cells: HEK293T (ATCC CRL-11268)

[3] = molecular target: T3, DRD4 (D4.4 variant) wild-type (Homo sapiens, UniProt P21917); test: Radioligand competition binding, [3H]-N-methylspiperone
T3 sequence (P21917 1-419): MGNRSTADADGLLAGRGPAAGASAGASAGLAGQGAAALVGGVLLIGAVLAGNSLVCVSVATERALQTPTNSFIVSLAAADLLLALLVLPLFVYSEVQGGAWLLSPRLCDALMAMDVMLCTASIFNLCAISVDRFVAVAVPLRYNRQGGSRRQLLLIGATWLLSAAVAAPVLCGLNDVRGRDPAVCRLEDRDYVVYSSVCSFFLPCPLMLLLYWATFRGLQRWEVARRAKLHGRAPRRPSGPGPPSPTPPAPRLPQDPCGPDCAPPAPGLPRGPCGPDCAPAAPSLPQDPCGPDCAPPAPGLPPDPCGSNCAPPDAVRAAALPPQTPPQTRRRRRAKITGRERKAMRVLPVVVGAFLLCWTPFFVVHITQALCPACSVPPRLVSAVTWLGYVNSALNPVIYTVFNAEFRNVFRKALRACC

[4] = molecular target: T4, DRD2 F1103.28A (Homo sapiens, UniProt P14416, F110A); test: Gαi/o-mediated cAMP inhibition (GloSensor), mutant; assay type: cell-based; parameters: expressed in transfected cells; host or cells: HEK293T (ATCC CRL-11268)
[5] = molecular target: T5, DRD4 (D4.4 variant) (Homo sapiens, UniProt P21917); test: Gαi/o-mediated cAMP inhibition (GloSensor); assay type: cell-based
T5 sequence (P21917 1-419): T3 sequence (P21917 1-419)

[6] = molecular target: T6, DRD2 (D2 long receptor) (Homo sapiens, UniProt P14416); test: β-arrestin2 recruitment (Tango), HTLA cells; assay type: cell-based; conditions: for response, Fig_S11e dose-response source data: replicate values; for Emax: HTLA, read-out: Emax relative to quinpirole response
[7] = molecular target: T6, DRD2 (D2 long receptor); test: Gαi/o-mediated cAMP inhibition (GloSensor split-luciferase cAMP reporter), HEK293T; assay type: cell-based; conditions: for response, Fig_S11d dose-response source data: replicate values; for Emax: HEK-293T, read-out: Emax relative to quinpirole response;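 on all read-outs here: compounds applied 15 min at room temperature, then luciferin plus 400 nM isoproterenol to raise cAMP through endogenous β2-adrenergic receptors, luminescence read 15 min later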
[8] = molecular target: T1, DRD3 F1063.28A; test: biochemical; assay type: binding
[9] = molecular target: T7, DRD3 (Homo sapiens, UniProt P35462); test: β-arrestin2 recruitment (Tango); assay type: cell-based; conditions: for Emax: read-out: Emax relative to quinpirole response
[10] = molecular target: T5, DRD4 (D4.4 variant); test: β-arrestin2 recruitment (Tango); assay type: cell-based
[11] = molecular target: DRD3 wild-type (Homo sapiens, UniProt P35462); test: Radioligand competition binding, [3H]-N-methylspiperone
[12] = molecular target: T4, DRD2 F1103.28A; test: β-arrestin2 recruitment (Tango), mutant; assay type: cell-based; parameters: expressed in transfected cells; host or cells: HEK293T (ATCC CRL-11268)
[13] = molecular target: T4, DRD2 F1103.28A; assay type: binding; parameters: expressed in transfected cells; host or cells: HEK293T (ATCC CRL-11268)
[14] = molecular target: DRD2 (D2 long receptor) wild-type (Homo sapiens, UniProt P14416); test: Radioligand competition binding, [3H]-N-methylspiperone, HEK293T membranes
[15] = molecular target: T2, DRD2 F1103.28L; test: β-arrestin2 recruitment (Tango), mutant; assay type: cell-based
[16] = molecular target: T7, DRD3; test: Gαi/o-mediated cAMP inhibition (GloSensor); assay type: cell-based
[17] = molecular target: T8, DRD2 S1975.46G (Homo sapiens, UniProt P14416, S197G); test: Gαi/o-mediated cAMP inhibition (GloSensor), mutant; assay type: cell-based; conditions: DRD2 Ser197^5.46Gly; G-protein assay
T8 construct: expressed in transfected cells; host or cells: HEK293T (ATCC CRL-11268)

[18] = read-out: Emax relative to quinpirole response

T2 sequence (P14416 whole entry F110L): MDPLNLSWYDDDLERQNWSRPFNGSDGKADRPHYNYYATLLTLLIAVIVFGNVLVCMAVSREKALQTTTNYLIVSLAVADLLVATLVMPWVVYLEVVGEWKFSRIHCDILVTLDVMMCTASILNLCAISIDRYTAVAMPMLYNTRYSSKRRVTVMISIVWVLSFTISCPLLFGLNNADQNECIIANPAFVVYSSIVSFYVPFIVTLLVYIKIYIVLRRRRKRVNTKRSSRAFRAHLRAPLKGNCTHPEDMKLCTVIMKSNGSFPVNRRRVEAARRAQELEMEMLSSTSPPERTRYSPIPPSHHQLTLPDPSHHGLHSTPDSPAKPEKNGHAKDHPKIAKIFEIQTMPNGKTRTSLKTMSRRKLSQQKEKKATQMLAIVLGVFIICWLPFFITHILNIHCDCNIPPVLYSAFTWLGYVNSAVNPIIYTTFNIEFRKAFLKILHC
T7 sequence (P35462 whole entry): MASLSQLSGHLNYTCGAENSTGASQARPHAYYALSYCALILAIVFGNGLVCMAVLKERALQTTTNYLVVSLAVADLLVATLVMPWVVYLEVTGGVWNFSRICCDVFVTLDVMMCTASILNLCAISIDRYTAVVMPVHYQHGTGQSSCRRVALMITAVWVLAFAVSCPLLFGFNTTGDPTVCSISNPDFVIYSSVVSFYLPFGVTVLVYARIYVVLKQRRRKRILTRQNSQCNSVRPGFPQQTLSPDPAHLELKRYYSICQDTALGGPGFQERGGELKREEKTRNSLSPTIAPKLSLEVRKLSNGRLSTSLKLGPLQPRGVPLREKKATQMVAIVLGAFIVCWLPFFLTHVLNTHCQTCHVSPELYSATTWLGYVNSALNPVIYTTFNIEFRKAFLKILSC
T1 sequence (P35462 whole entry F106A): as the sequence (P35462 whole entry) above, with F106A counted along it
T4 sequence (P14416 whole entry F110A): as the sequence (P14416 whole entry F110L) above, with L110A counted along it
T6 sequence (P14416 whole entry): as the sequence (P14416 whole entry F110L) above, with L110F counted along it
Chain of DRD3 wild-type (P35462 whole entry): as the sequence (P35462 whole entry) above
Chain of DRD2 (D2 long receptor) wild-type (P14416 whole entry): as the sequence (P14416 whole entry F110L) above, with L110F counted along it
T8 sequence (P14416 whole entry S197G): as the sequence (P14416 whole entry F110L) above, with L110F, S197G counted along it

Structure (SMILES): CCOc1cccc2cc(C(C)NCC3(O)CCCCCCC3)oc12 (stereo not drawn) [O4LE8]
- EC50 [1]: > 10000 nM
- EC50 ([2]; DRD2 F1103.28L (b138 head prints DRD2 F1063.28L)): 5.14 ± 1.34 nM
- Emax ([2]; read-out: Emax relative to quinpirole response, DRD2 F1103.28L): 79.4%
- Ki ([3]; DRD4, [3H]-methylspiperone (0.8-1.0 nM), read-out: Ki): 3470 nM
- EC50 [4]: > 10000 nM
- EC50 ([5]; DRD4, agonist, cAMP inhibition, read-out: EC50 ± SEM): > 10000 nM
- EC50 ([6]; DRD2, β-arrestin2 recruitment (Tango), read-out: EC50 ± SEM): 958 ± 554 nM
- response, Fig_S11e dose-response source data ([6]; Log[Drug] -6.52): 25.1709
- response, Fig_S11e dose-response source data ([6]; Log[Drug] -7): 14.6742 and 15.2038 and 14.2094 and 15.768 and 13.8247 and 10.963 and 9.8559 and 9.763 and 11.4407
- response, Fig_S11e dose-response source data ([6]; Log[Drug] -7.52): 7.064 and 7.803 and 7.822 and 6.018 and 6.959 and 8.6294 and 5.868 and 6.2292 and 7.2281
- response, Fig_S11e dose-response source data ([6]; Log[Drug] -8): 5.7468 and 5.978 and 6.62 and 5.455 and 5.722 and 6.021 and 5.454 and 5.678 and 6.204
- response, Fig_S11e dose-response source data ([6]; Log[Drug] -8.52): 5.4648 and 5.687 and 6.826 and 4.883 and 5.2931 and 6.0726 and 5.125 and 5.623 and 6.271
- response, Fig_S11e dose-response source data ([6]; Log[Drug] -9): 5.367 and 5.481 and 6.509 and 5.152 and 5.102 and 5.412 and 5.069 and 5.184 and 5.586
- response, Fig_S11e dose-response source data ([6]; Log[Drug] -9.52): 5.23 and 5.307 and 5.645 and 4.9908 and 4.966 and 5.083 and 5.0713 and 4.923 and 5.288
- response, Fig_S11e dose-response source data ([6]; Log[Drug] -10): 5.15 and 5.211 and 5.175 and 4.9 and 4.98 and 4.8838 and 4.832 and 4.97 and 4.906
- response, Fig_S11e dose-response source data ([6]; Log[Drug] -10.52): 5.0534 and 4.953 and 5.08 and 4.774 (2×) and 4.9 and 4.962 and 4.816 and 4.832
- response, Fig_S11e dose-response source data ([6]; Log[Drug] -11): 5.0347 and 4.933 and 5.013 and 4.706 and 4.819 and 4.763 and 4.774 (2×) and 4.732
- response, Fig_S11e dose-response source data ([6]; Log[Drug] -11.52): 4.924 and 5.294 and 5.1115 and 4.785 and 5.303 and 4.761 and 4.741 and 4.765 and 4.928
- response, Fig_S11e dose-response source data ([6]; Log[Drug] -12): 4.887 and 4.896 and 4.876 and 4.741 and 5.073 and 4.844 and 4.843 and 5.092 and 4.723
- Emax ([6]; DRD2, Tango): 54%
- EC50 ([7]; DRD2, agonist, Gαi/o-mediated cAMP inhibition, read-out: EC50 ± SEM): 25.1 ± 4.15 nM
- response, Fig_S11d dose-response source data ([7]; Log[Drug] -6.52): 81.714
- response, Fig_S11d dose-response source data ([7]; Log[Drug] -7): 60.3486 and 66.6804 and 72.7008 and 60.4684 and 68.6286 and 77.0139 and 66.1563 and 80.9789 and 74.7009
- response, Fig_S11d dose-response source data ([7]; Log[Drug] -7.52): 64.1546 and 42.5815 and 54.9164 and 48.6839 and 50.89 and 54.6944 and 53.231 and 58.2356 and 61.6484
- response, Fig_S11d dose-response source data ([7]; Log[Drug] -8): 30.3505 and 38.7582 and 38.4468 and 27.6925 and 25.4414 and 37.7886 and 33.6203 and 36.6384 and 38.4211
- response, Fig_S11d dose-response source data ([7]; Log[Drug] -8.52): 18.8806 and 26.4753 and 29.6239 and 29.8085 and 24.7211 and 36.5506 and 30.7552 and 20.988 and 25.8907
- response, Fig_S11d dose-response source data ([7]; Log[Drug] -9): 10.6977 and 6.477 and 22.1503 and -4.7682 and 5.553 and 28.1427 and 15.0029 and 22.6689 and 22.3633
- response, Fig_S11d dose-response source data ([7]; Log[Drug] -9.52): 13.483 and 14.7978 and 22.2541 and 0.3305 and -1.0989 and 21.5583 and 10.5969 and 17.6134 and 23.573
- response, Fig_S11d dose-response source data ([7]; Log[Drug] -10): 5.075 and 27.3403 and 11.8049 and -5.4661 and -6.0063 and 15.8293 and -4.1493 and 12.6598 and 11.3991
- response, Fig_S11d dose-response source data ([7]; Log[Drug] -10.52): 26.6829 and 14.6767 and 28.6205 and 3.955 and -0.615 and 13.1617 and 5.592 and 6.484 and 18.0973
- response, Fig_S11d dose-response source data ([7]; Log[Drug] -11): 14.0885 and 21.7351 and 14.8497 and 2.548 and 0.2179 and 18.1479 and 4.5736 and 10.5841 and 33.4421
- response, Fig_S11d dose-response source data ([7]; Log[Drug] -11.52): 14.3134 and 21.1815 and -2.3983 and 1.163 and 10.5955 and 20.3089 and -4.0602 and -1.4624 and 2.396
- response, Fig_S11d dose-response source data ([7]; Log[Drug] -12): -12.3977 and -4.8203 and -3.3671 and -5.6011 and 0.2067 and 18.6656 and 6.267 and -13.7 and 1.135
- Emax ([7]; DRD2, cAMP inhibition): 93.5%
- Ki [8]: 209 nM
- affinity decreased, mutant vs wild type ([8]; DRD3 Phe106^3.28Ala vs wild-type DRD3): 1.62 fold
- EC50 ([9]; DRD3, Tango, read-out: EC50 ± SEM): 2570 ± 331 nM
- Emax ([9]; DRD3, Tango): 12.6%
- EC50 ([10]; DRD4, Tango, read-out: EC50 ± SEM): 7720 ± 3420 nM
- Emax ([10]; read-out: Emax relative to quinpirole response, DRD4, Tango): 22.3%
- Ki ([11]; DRD3 wild-type, read-out: pKi ± SEM (converted)): 126 nM
- EC50 [12]: > 10000 nM
- Ki ([13]; DRD2 F1103.28A, read-out: pKi ± SEM (converted)): 174 nM
- affinity increase (binding enhanced), mutant vs wild type ([13]; DRD2 Phe110^3.28Ala vs wild-type DRD2): 8.47 fold
- Ki ([14]; DRD2, [3H]-methylspiperone (0.8-1.0 nM), read-out: Ki): 1440 nM
- EC50 [15]: 83.2 nM
- Emax [15, 18]: 12.9%

Structure (SMILES): CC(CCc1ccccc1[N+](=O)[O-])NCC1(O)CCCCC1 (stereo not drawn) [O7LE6]
- Ki ([3]; Ki): > 10000 nM
- EC50 [16]: 1.96 nM
- Emax [16, 18]: 82.7%
- EC50 [5]: > 10000 nM
- G protein agonist activity ([5]; DRD4, cAMP inhibition): no DRD4 activity
- EC50 [6]: 6.95 nM
- Emax [6]: 85.3%
- EC50 [7]: 1.13 nM
- Emax [7]: 100%
- EC50 [9]: 117 nM
- Emax [9]: 88.5%
- agonism after serine to glycine substitution [17]: substantially diminished
- EC50 [10]: > 10000 nM
- β-arrestin2 recruitment agonist activity ([10]; DRD4, Tango): no DRD4 activity
- Ki [11]: 174 nM
- Ki ([14]; Ki): 1410 nM
